The record followed here is patent US8008299B2, “Urotensin II receptor antagonists” (Janssen Pharmaceutica, N.V., priority 2007, dated 2011).

The structures appear in SMILES notation. Where two headings read alike, the source gives them in different places.

Test [1] deals with T1, Human UII (U-II receptor) in 6D9 human rhabdomyosarcoma cells (Homo sapiens, UniProt Q9UKP6).
T1 construct: 6D9: isolated by dilution subcloning of RMS13 cells, ATCC® Number: CRL-2061; host or cells: 6D9 human rhabdomyosarcoma cells (subclone of RMS13)
T1 sequence (Q9UKP6 1-389): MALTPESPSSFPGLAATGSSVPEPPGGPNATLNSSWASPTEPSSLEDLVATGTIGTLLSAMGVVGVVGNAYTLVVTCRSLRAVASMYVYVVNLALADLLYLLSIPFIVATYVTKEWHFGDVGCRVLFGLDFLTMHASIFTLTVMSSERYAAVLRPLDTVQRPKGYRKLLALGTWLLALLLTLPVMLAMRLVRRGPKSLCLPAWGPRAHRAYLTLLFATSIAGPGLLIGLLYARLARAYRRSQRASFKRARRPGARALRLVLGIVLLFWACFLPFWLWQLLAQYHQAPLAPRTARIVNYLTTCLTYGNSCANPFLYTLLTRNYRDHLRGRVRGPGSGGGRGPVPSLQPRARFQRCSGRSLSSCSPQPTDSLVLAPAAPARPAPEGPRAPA
Description: Human UII Calcium Mobilization Assay. The format is cell-based. To be noted: 6D9 human rhabdomyosarcoma cells, FLIPR TETRA, average; read-out: Human UII Ca+ Mobilization Average IC50. The protocol: 25 μL of dye solution was added to the wells such that the final liquid volume before agonist/antagonist treatment was 50 μL for all assays. The cell plates were incubated at 37° C. for 45 minutes and the fluorescence intensity was measured on a Fluorometric Imaging Plate Reader (FLIPR^TETRA, Molecular Devices, Sunnyvale, Calif.).
Antagonist and agonist U-II were added at room temperature on the FLIPR^TETRA, and the fluorescence intensity before and after addition was measured over a period of 4 minutes. The dye incubation time and temperature as well as instrument setting was adjusted so the fluorescence intensity could be compared between plates on the same day. EC50 and IC50 were analyzed using GraphPad Prism 4 software (GraphPad Software Inc., San Diego, Calif.).
For assays, U-II agonist, U-II antagonist and urantide were diluted with HBSS/HEPES containing 0.01% FBS.
Test compounds were dissolved in DMSO at 10 mM concentration. The serial dilutions were carried out in HBSS/HEPES. The highest final DMSO concentration was at 0.1%.

The target in test [2] is T2, rat GPR14 (U-II receptor) (Rattus norvegicus, UniProt P49684).
T2 construct: expressed in transfected cells
T2 sequence (P49684 1-386): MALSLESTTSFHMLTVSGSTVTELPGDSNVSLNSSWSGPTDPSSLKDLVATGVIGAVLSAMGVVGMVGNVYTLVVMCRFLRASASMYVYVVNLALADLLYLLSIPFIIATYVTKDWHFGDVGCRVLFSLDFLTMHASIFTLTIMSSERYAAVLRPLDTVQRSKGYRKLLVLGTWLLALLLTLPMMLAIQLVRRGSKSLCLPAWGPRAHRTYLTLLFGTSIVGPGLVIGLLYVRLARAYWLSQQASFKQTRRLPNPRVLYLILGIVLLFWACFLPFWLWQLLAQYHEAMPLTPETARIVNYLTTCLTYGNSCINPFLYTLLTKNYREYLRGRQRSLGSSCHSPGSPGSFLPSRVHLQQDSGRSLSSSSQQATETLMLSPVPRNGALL
As to the kind of experiment: Rat UII Calcium Mobilization FLIPR Assay. The conditions noted are these: CHO cells transfected with rat GPR14; antagonist activity after 5 min incubation vs agonist (Ac)-CFWK(2-NaI)C-NH2 at 1 nM. The class given is cell-based. The source says: To derive these cells, the complete coding sequence of rat U-II (Genbank Accession No. U32673) was amplified by nested PCR from rat heart marathon-Ready cDNA. […] The PCR products were cloned into pcDNA3 (Invitrogen) digested with EcoR I and Xba I. Clones containing rat U-II receptor were verified by complete sequencing of the U-II receptor insert to ensure a lack of PCR-introduced errors. The constructed vector was transfected into CHO cells by using lipofectamine (GIBCO BRL). CHO cells with high expression of rat U-II receptor were selected and established as stable cell lines by using G418. CHO cells were seeded at 25,000 cells per well into 96-well, black-wall, clear-bottom microtiter plates 24 h before assay. Cells in culture media (DMEM/F12 containing 15 mM HEPES, L-glutamine, pyridoxine hydrochloride; 10% fetal bovine serum; 1 mg/mL G418 sulfate; antibiotic-antimycotic; pH 7.4) were loaded with proprietary dye, from the FLIPR Calcium Assay Kit (Molecular Devices), prepared in assay buffer (Hanks Balanced Salts Solution, 20 mM HEPES, 0.1% BSA, 2.5 mM probenecid, pH 7.4), and incubated for 1 h at 37° C. Calcium mobilization determinations were performed at room temperature (23° C.).
Background: Calcium assays in cells follow changes in intracellular calcium, usually with a dye or a luminescent sensor.

The target in test [3] is T3, UT receptors in HSMM (Human Skeletal Muscle Myoblasts) (Homo sapiens, UniProt Q9UKP6).
T3 sequence (Q9UKP6 1-389): T1 sequence (Q9UKP6 1-389)
As to the kind of experiment: Human Radioligand Binding Assay ((^125I)-U-II binding to intact HSMM).

One may read the IC50 as the concentration that inhibits the measured activity by half. A word on the Ki: it is a measure of affinity in units of concentration, obtained from inhibition or displacement. For `CCN1CCN(c2cccc3c2CN([C@H](CCCNS(=O)(=O)c2cn(C)c(C)n2)c2ccc(OC)c(OC)c2)C3=O)CC1` [Cpd 82, 1,2-dimethyl-1H-imidazole-4-sulfonic acid {(4R)-4-(3,4-dimethoxy-phenyl)-4-[4-(4-ethyl-piperazin-1-yl)-1-oxo-1,3-dihydro-isoindol-2-yl]-butyl}-amide], the 50% inhibitory concentration (IC50) in test [1] was 51 nM; in test [2], 23 nM. Further, in test [3], the Ki stood at 25 nM.

With `CCN1CCN(c2cccc3c2CN([C@H](CCCOc2ccccc2)c2ccc(OC)c(OC)c2)C3=O)CC1` [Cpd 50, 2-[(1R)-1-(3,4-dimethoxy-phenyl)-4-phenoxy-butyl]-4-(4-ethyl-piperazin-1-yl)-2,3-dihydro-isoindol-1-one], the IC50 in test [1] is 482 nM; in test [2], 7 nM. For the same compound, affinity in test [3] was put at a Ki of 23 nM.

In the case of `CCN1CCN(c2cccc3c2CN([C@H](CCCNC(=O)C(C)(C)C)c2ccc(OC)c(OC)c2)C3=O)CC1` [Cpd 83, N-{(4R)-4-(3,4-dimethoxy-phenyl)-4-[4-(4-ethyl-piperazin-1-yl)-1-oxo-1,3-dihydro-isoindol-2-yl]-butyl}-2,2-dimethyl-propionamide], the concentration for half-maximal inhibition (IC50) was found to be 200 nM in test [1] and 45 nM in test [2]. In addition, the affinity in test [3], expressed as Ki, was 17 nM.

On to `COc1ccc([C@@H](CCCn2ccnc2)N2Cc3c(cccc3N3CCNCC3)C2=O)cc1OC` [Cpd 35, 2-[(1R)-1-(3,4-dimethoxy-phenyl)-4-imidazol-1-yl-butyl]-4-piperazin-1-yl-2,3-dihydro-isoindol-1-one], for which the concentration for half-maximal inhibition (IC50) in test [1] is more than 10000 nM; in test [2], 1900 nM. The compound further yielded an inhibitory constant (Ki) in test [3] of 1100 nM.

Turning to `CCN1CCN(c2cccc3c2CN([C@H](CCCNc2nccc(C)n2)c2ccc(OC)c(OC)c2)C3=O)CC1` [Cpd 23, 2-[(1R)-1-(3,4-dimethoxy-phenyl)-4-(4-methyl-pyrimidin-2-ylamino)-butyl]-4-(4-ethyl-piperazin-1-yl)-2,3-dihydro-isoindol-1-one], the concentration for half-maximal inhibition (IC50) was determined as 316 nM in test [1] and 19 nM in test [2]. In test [3], this compound displayed a Ki of 13 nM.

Take `CCN1CCN(c2cccc3c2CN([C@H](CCCNc2nc(C)cc(C)n2)c2ccc(OC)c(OC)c2)C3=O)CC1` [Cpd 12, 2-[(1R)-1-(3,4-dimethoxy-phenyl)-4-(4,6-dimethyl-pyrimidin-2-ylamino)-butyl]-4-(4-ethyl-piperazin-1-yl)-2,3-dihydro-isoindol-1-one]: the values for the half-maximal inhibitory concentration (IC50) in test [1] and in test [2] were 844 nM and 12 nM, respectively. For the same compound, the affinity in test [3], expressed as Ki, was 54 nM.

Regarding `COc1ccc([C@@H](CCCSc2ccccc2)N2Cc3c(cccc3N3CCNCC3)C2=O)cc1OC` [Cpd 36, 2-[(1R)-1-(3,4-dimethoxy-phenyl)-4-phenylsulfanyl-butyl]-4-piperazin-1-yl-2,3-dihydro-isoindol-1-one], the IC50 in test [1] came out at 1150 nM; in test [2], 19 nM. Further, the affinity in test [3], expressed as Ki, was 122 nM.

For `CCN1CCN(c2cccc3c2CN([C@H](CCCNc2nccc(OC)n2)c2ccc(OC)c(OC)c2)C3=O)CC1` [Cpd 21, 2-[(1R)-1-(3,4-dimethoxy-phenyl)-4-(4-methoxy-pyrimidin-2-ylamino)-butyl]-4-(4-ethyl-piperazin-1-yl)-2,3-dihydro-isoindol-1-one], the 50% inhibitory concentration (IC50) in test [1] came out at 620 nM; in test [2], 4 nM. For the same compound, the affinity in test [3] corresponds to a Ki of 8 nM.

For `CCN1CCN(c2cccc3c2CN([C@H](CCCN(Cc2ccccc2)Cc2ccccc2)c2ccc(OC)c(OC)c2)C3=O)CC1` [Cpd 73, 2-[(1R)-4-dibenzylamino-1-(3,4-dimethoxy-phenyl)-butyl]-4-(4-ethyl-piperazin-1-yl)-2,3-dihydro-isoindol-1-one], the IC50 in test [1] was 178 nM; in test [2], 26 nM. In addition, the inhibitory constant (Ki) in test [3] stood at 53 nM.

As for `CCN1CCN(c2cccc3c2CN([C@H](CCCNC(=O)c2cncn2C)c2ccc(OC)c(OC)c2)C3=O)CC1` [Cpd 59, 3-methyl-3H-imidazole-4-carboxylic acid {(4R)-4-(3,4-dimethoxy-phenyl)-4-[4-(4-ethyl-piperazin-1-yl)-1-oxo-1,3-dihydro-isoindol-2-yl]-butyl}-amide], the half-inhibitory concentration (IC50) in test [1] worked out at 1260 nM; in test [2], 82 nM. Moreover, in test [3], the inhibition constant (Ki) was more than 300 nM.

As to `CCN1CCN(c2cccc3c2CN([C@H](CCCN(Cc2ccncc2)Cc2ccncc2)c2ccc(OC)c(OC)c2)C3=O)CC1` [Cpd 63, 2-[(1R)-4-(bis-pyridin-4-ylmethyl-amino)-1-(3,4-dimethoxy-phenyl)-butyl]-4-(4-ethyl-piperazin-1-yl)-2,3-dihydro-isoindol-1-one], the 50% inhibitory concentration (IC50) in test [1] turned out to be 20 nM; in test [2], 7 nM. Also, the Ki in test [3] was determined as 8 nM.

With `CCN1CCN(c2cccc3c2CN([C@H](CCCn2cnnn2)c2ccc(OC)c(OC)c2)C3=O)CC1` [Cpd 14, 2-[(1R)-1-(3,4-dimethoxy-phenyl)-4-tetrazol-1-yl-butyl]-4-(4-ethyl-piperazin-1-yl)-2,3-dihydro-isoindol-1-one], the values for the 50% inhibitory concentration (IC50) in test [1] and in test [2] were 1390 nM and 31 nM, respectively. For the same compound, in test [3], the inhibitory constant (Ki) was found to be 129 nM.

Take `CCN1CCN(c2cccc3c2CN([C@H](CCCNC(=O)c2c(C)n[nH]c2C)c2ccc(OC)c(OC)c2)C3=O)CC1` [Cpd 60, 3,5-dimethyl-1H-pyrazole-4-carboxylic acid {(4R)-4-(3,4-dimethoxy-phenyl)-4-[4-(4-ethyl-piperazin-1-yl)-1-oxo-1,3-dihydro-isoindol-2-yl]-butyl}-amide]: the half-maximal inhibitory concentration (IC50) was 130 nM in test [1] and 16 nM in test [2]. In addition, the Ki in test [3] (read-out: Human UII Average Binding Ki, intact HSMM, 0.150 nM (^125I)-U-II, 3 h, 25° C.) stood at 11 nM.

As to `CCN1CCN(c2cccc3c2CN([C@H](CCCN(C)Cc2cccs2)c2ccc(OC)c(OC)c2)C3=O)CC1` [Cpd 95, 2-[(1R)-1-(3,4-dimethoxy-phenyl)-4-(methyl-thiophen-2-ylmethyl-amino)-butyl]-4-(4-ethyl-piperazin-1-yl)-2,3-dihydro-isoindol-1-one], the results for the 50% inhibitory concentration (IC50) in test [1] and in test [2] were 92 nM and 5 nM, respectively. The inhibition constant (Ki) in test [3] worked out at 23 nM.

In the case of `CCN1CCN(c2cccc3c2CN([C@H](CCCNCc2ccc(F)cc2)c2ccc(OC)c(OC)c2)C3=O)CC1` [Cpd 91, 2-[(1R)-1-(3,4-dimethoxy-phenyl)-4-(4-fluoro-benzylamino)-butyl]-4-(4-ethyl-piperazin-1-yl)-2,3-dihydro-isoindol-1-one], the IC50 in test [1] came to 106 nM; in test [2], 3 nM. The compound further displayed a Ki in test [3] of 62 nM.

Take `CCN1CCN(c2cccc3c2CN(C(c2cccc(NCc4ccccc4)c2)c2ccc(OC)c(OC)c2)C3=O)CC1` (stereo not drawn) [Cpd 19, 2-[(3-benzylamino-phenyl)-(3,4-dimethoxy-phenyl)-methyl]-4-(4-ethyl-piperazin-1-yl)-2,3-dihydro-isoindol-1-one]: the IC50 is 2380 nM in test [1] and 138 nM in test [2]. In test [3], the inhibition constant (Ki) is more than 300 nM.
